From ChEMBL document CHEMBL3758081, “Synthesis and biological evaluation of new naphthalene substituted thiosemicarbazone derivatives as potent antifungal and anticancer agents” (Eur J Med Chem, 2016)
≈ marks a conversion by molar mass, not a printed value.

What was measured:
[1] = tested on: A549; assay: Cytotoxicity against human A549 cells after 24 hrs by XTT assay; format: functional, cell-based; details: A549, 24 h
[2] = tested on: Salmonella typhimurium; assay: Mutagenicity in Salmonella typhimurium TA98 at 0.156 mg/ml after 48 hrs by Ames MPF assay in absence of Sprague-Dawley rat liver S9 fraction; format: toxicity, organism-based; details: salmonella enterica subsp. enterica serovar typhimurium
[3] = tested on: Aspergillus niger; assay: Antifungal activity against Aspergillus niger ATCC-1094 after 72 hrs by broth microdilution method; format: functional; details: ATCC-1094, 72 h
[4] = Cytotoxicity against mouse NIH/3T3 cells after 24 hrs by XTT assay; format: cell-based; details: NIH3T3, 24 h
[5] = tested on: Candida tropicalis; assay: Antifungal activity against Candida tropicalis NRLL Y-12968 after 48 hrs by broth microdilution method; format: functional; details: NRLL Y-12968, 48 h
[6] = Genotoxicity in Salmonella typhimurium TA1535/pSK1002 assessed as induction ratio at 2.5 mg/ml after 2 hrs by umuC assay in absence of Sprague-Dawley rat liver S9 fraction; format: toxicity, organism-based; details: salmonella enterica subsp. enterica serovar typhimurium
[7] = tested on: Salmonella typhimurium; assay: Genotoxicity in Salmonella typhimurium TA1535/pSK1002 assessed as growth factor at 1.25 mg/ml after 2 hrs by umuC assay in absence of Sprague-Dawley rat liver S9 fraction; format: toxicity, organism-based; details: salmonella enterica subsp. enterica serovar typhimurium
[8] = tested on: Salmonella typhimurium; assay: Genotoxicity in Salmonella typhimurium TA1535/pSK1002 assessed as growth factor at 0.156 mg/ml after 2 hrs by umuC assay in presence of Sprague-Dawley rat liver S9 fraction; format: toxicity, organism-based; details: salmonella enterica subsp. enterica serovar typhimurium, s9, 2 h
[9] = tested on: Salmonella typhimurium; assay: Genotoxicity in Salmonella typhimurium TA1535/pSK1002 assessed as growth factor at 0.3125 mg/ml after 2 hrs by umuC assay in absence of Sprague-Dawley rat liver S9 fraction; format: toxicity, organism-based; details: salmonella enterica subsp. enterica serovar typhimurium
[10] = tested on: Salmonella typhimurium; assay: Mutagenicity in Salmonella typhimurium TA98 at 0.625 mg/ml after 48 hrs by Ames MPF assay in absence of Sprague-Dawley rat liver S9 fraction; format: toxicity, organism-based; details: salmonella enterica subsp. enterica serovar typhimurium
[11] = tested on: Salmonella typhimurium; assay: Mutagenicity in Salmonella typhimurium TA100 at 5 mg/ml after 48 hrs by Ames MPF assay in presence of Sprague-Dawley rat liver S9 fraction; format: toxicity, organism-based; details: salmonella enterica subsp. enterica serovar typhimurium, s9, 48 h
[12] = tested on: Salmonella typhimurium; assay: Genotoxicity in Salmonella typhimurium TA1535/pSK1002 assessed as growth factor at 0.625 mg/ml after 2 hrs by umuC assay in presence of Sprague-Dawley rat liver S9 fraction; format: toxicity, organism-based; details: salmonella enterica subsp. enterica serovar typhimurium, s9, 2 h
[13] = tested on: Salmonella typhimurium; assay: Mutagenicity in Salmonella typhimurium TA98 at 0.625 mg/ml after 48 hrs by Ames MPF assay in presence of Sprague-Dawley rat liver S9 fraction; format: toxicity, organism-based; details: salmonella enterica subsp. enterica serovar typhimurium, s9, 48 h
[14] = tested on: Salmonella typhimurium; assay: Mutagenicity in Salmonella typhimurium TA100 at 0.3125 mg/ml after 48 hrs by Ames MPF assay in absence of Sprague-Dawley rat liver S9 fraction; format: toxicity, organism-based; details: salmonella enterica subsp. enterica serovar typhimurium
[15] = tested on: Aspergillus parasiticus; assay: Antifungal activity against Aspergillus parasiticus NRRL 465 after 72 hrs by broth microdilution method; format: functional; details: NRRL 465, 72 h
[16] = Genotoxicity in Salmonella typhimurium TA1535/pSK1002 assessed as induction ratio at 2.5 mg/ml after 2 hrs by umuC assay in presence of Sprague-Dawley rat liver S9 fraction; format: toxicity, organism-based; details: salmonella enterica subsp. enterica serovar typhimurium
[17] = tested on: Salmonella typhimurium; assay: Mutagenicity in Salmonella typhimurium TA100 at 0.3125 mg/ml after 48 hrs by Ames MPF assay in presence of Sprague-Dawley rat liver S9 fraction; format: toxicity, organism-based; details: salmonella enterica subsp. enterica serovar typhimurium, s9, 48 h
[18] = Genotoxicity in Salmonella typhimurium TA1535/pSK1002 assessed as induction ratio at 0.3125 mg/ml after 2 hrs by umuC assay in presence of Sprague-Dawley rat liver S9 fraction; format: toxicity, organism-based; details: salmonella enterica subsp. enterica serovar typhimurium
[19] = tested on: Salmonella typhimurium; assay: Mutagenicity in Salmonella typhimurium TA98 at 1.25 mg/ml after 48 hrs by Ames MPF assay in presence of Sprague-Dawley rat liver S9 fraction; format: toxicity, organism-based; details: salmonella enterica subsp. enterica serovar typhimurium, s9, 48 h
[20] = tested on: Salmonella typhimurium; assay: Mutagenicity in Salmonella typhimurium TA100 at 2.5 mg/ml after 48 hrs by Ames MPF assay in absence of Sprague-Dawley rat liver S9 fraction; format: toxicity, organism-based; details: salmonella enterica subsp. enterica serovar typhimurium
[21] = tested on: Salmonella typhimurium; assay: Mutagenicity in Salmonella typhimurium TA98 at 5 mg/ml after 48 hrs by Ames MPF assay in presence of Sprague-Dawley rat liver S9 fraction; format: toxicity, organism-based; details: salmonella enterica subsp. enterica serovar typhimurium, s9, 48 h
[22] = tested on: Salmonella typhimurium; assay: Mutagenicity in Salmonella typhimurium TA98 at 2.5 mg/ml after 48 hrs by Ames MPF assay in presence of Sprague-Dawley rat liver S9 fraction; format: toxicity, organism-based; details: salmonella enterica subsp. enterica serovar typhimurium, s9, 48 h
[23] = tested on: Salmonella typhimurium; assay: Mutagenicity in Salmonella typhimurium TA98 at 1.25 mg/ml after 48 hrs by Ames MPF assay in absence of Sprague-Dawley rat liver S9 fraction; format: toxicity, organism-based; details: salmonella enterica subsp. enterica serovar typhimurium
[24] = Genotoxicity in Salmonella typhimurium TA1535/pSK1002 assessed as induction ratio at 1.25 mg/ml after 2 hrs by umuC assay in presence of Sprague-Dawley rat liver S9 fraction; format: toxicity, organism-based; details: salmonella enterica subsp. enterica serovar typhimurium

MIC [3] [µg/mL]	MIC [5] [µg/mL]	MIC [15] [µg/mL]	SMILES	IC50 [1] [µg/mL]	fold change (FC) [2]	IC50 [4] [µg/mL]	fold induction at 2 h, 2.5 mg/ml [6]	Activity [7]	Activity [8]	Activity [9]	fold change (FC) [10]	fold change (FC) [11]	Activity [12]	fold change (FC) [13]	fold change (FC) [14]	fold induction at 2 h, 2.5 mg/ml [16]	fold change (FC) [17]	fold induction at 2 h, 0.3125 mg/ml [18]	fold change (FC) [19]	fold change (FC) [20]	also measured
250 (≈ 732 µM)	250 (≈ 732 µM)	250 (≈ 732 µM)	Fc1cccc(/C=N/NC(=S)Nc2cccc3ccccc23)c1F	500 (≈ 1460 µM)	0.17	> 500	5.25	0.131	0.274	0.115	0	1.02	0.236	0.84	0.36	3.99	1.07	2.81	0.84	0.18	fold change (FC) [21]: 0.56; fold change (FC) [22]: 0.47; fold change (FC) [23]: 0.34; fold induction at 2 h, 1.25 mg/ml [24]: 1.42
250 (≈ 732 µM)	250 (≈ 732 µM)	250 (≈ 732 µM)	Fc1ccc(F)c(/C=N/NC(=S)Nc2cccc3ccccc23)c1	500 (≈ 1460 µM)	0.51	> 500	1.75	0.115	0.235	0.168	0	0.78	0.274	0.28	0	1.39	0.34	1.4	0.65	0.48	fold change (FC) [21]: 0.65; fold change (FC) [22]: 0.56; fold change (FC) [23]: 0.34; fold induction at 2 h, 1.25 mg/ml [24]: 2.81
